Data taken from patent US6653081B2, “Methods for monitoring antiretroviral therapy and guiding therapeutic decision in the treatment of HIV/AIDS” (ViroLogic, Inc., priority 2000, dated 2003).
“And” between values parts separate entries of the source, which are not always exact repeats. Equal entries are not always repeated.

Legend:
[1] = system: RTV-K103N/I135T/V245T; assay: Phenotypic susceptibility assay, RTV-K103N/I135T/V245T; format: cell-based, HIV-1; conditions: site-directed K103N + I135T + V245T
From the text: (§1) The resistance test vectors containing a functional luciferase gene cassette were constructed and host cells were transfected with the resistance test vector DNA. The resistant test vectors contained patient-derived reverse transcriptase and protease sequences that were either susceptible or resistant to the antiretroviral agents, such as nucleoside reverse transcriptase inhibitors, (NRTIs) non-nucleoside reverse transcriptase inhibitors […] protease inhibitors. The resistance test vector viral particles produced by transfecting the resistance test vector DNA into host cells, either in the presence or absence of PRIs, were used to infect target host cells grown either in the absence of NRTIs or NNRTIs, or in the presence of increasing concentrations of the drug. The amount of luciferase activity produced in infected target host cells in the presence of varying concentrations of drug was compared to the amount of luciferase produced in infected target host cells in the absence of drug. “Drug resistance” was measured as the amount of drug required to inhibit by 50% the luciferase activity detected in the absence of drug (inhibitory concentration 50%, IC50). The IC50 values were determined by plotting percent drug inhibition vs. log10 drug concentration. Stimulation of viral replication was measured as the percent increase in luciferase activity detected when infection occurs in the presence of drug as compared to in the absence of drug.
(§2) Host cells were seeded in 10-cm-diameter dishes and were transfected several days after plating with resistance test vector plasmid DNA and the envelope expression vector. Transfections were performed using a calcium-phosphate precipitation procedure. The cell culture media containing the DNA precipitate was replaced with fresh medium, from one to 24 hours, after transfection. Cell culture media containing resistance test vector viral particles was harvested one to four days after transfection and was passed through a […] filter before being used to infect target host cells, or being stored at −80° C. HIV capsid protein (p24) levels in the harvested cell culture media were determined by an EIA method as described by the manufacturer (SAIC; Frederick, Md.). Before infection, target cells (293 and 293/T) were plated in cell culture media. Control infections were performed using cell culture media from mock transfections (no DNA) or transfections containing the resistance test vector plasmid DNA without the envelope expression plasmid. One to three or more days after infection, the media was removed and cell lysis buffer (Promega) was added to each well. Cell lysates were assayed for luciferase activity (FIG. 3). The inhibitory effect of the drug was determined using the following equation:
(§3) % luciferase inhibition=1−(RLUluc[drug]÷RLUluc)×100
(§4) where RLUluc [drug] is the Relative Light Unit of luciferase activity in infected cells in the presence of drug, and RLUluc is the Relative Light Unit of luciferase activity in infected cells in the absence of drug. IC50values were obtained from the sigmoidal curves that were generated from the data by plotting the percent inhibition of luciferase activity vs. the log10 drug concentration. The percent luciferase stimulation is the negative of the % inhibition calculated using the formula above.
(§5) A resistance test vector containing three mutations, K103N, I135T and V245T (RTV-K103N/I135T/V245T) was constructed and tested in the phenotypic assay described earlier. The results were compared to those determined using a genetically defined resistance test vector that was wild type at positions 103, 135 and 245. We determined the pattern of phenotypic susceptibility to the NNRTIs, delavirdine, nevirapine and efavirenz, in RTV-K103N.

[2] = system: RTV-I270S; assay: Phenotypic susceptibility assay, RTV-I270S; format: cell-based, HIV-1; conditions: site-directed I270S alone
From the text: as §1, §2, §3, §4
A resistance test vector containing all of the mutations present in […] except for the I270S (RTV-013522/270I) was constructed and tested using the phenotypic assay described earlier. The results were compared to those determined using the parent RTV-013522. We determined the pattern of phenotypic susceptibility to the NNRTIs, delavirdine, nevirapine and efavirenz, in the reverted vector RTV-013522/270I. […] In this patient sample the correlation of drug-dependent stimulation of viral replication with the mutation at I270S is very striking. […]

[3] = system: RTV-1033-3/106V/227F/286T; assay: Phenotypic susceptibility assay, RTV-1033-3/106V/227F/286T; format: cell-based, HIV; conditions: RTV-1033-3 with V106A, F227L and T286A reverted
From the text: as §1, §2, §3, §4
(§6) A resistance test vector containing all of the mutations present in RTV-1033-3 except for V106A, F227L and T286A (RTV-1033-3/106V/227F/286T) was constructed and tested using the phenotypic assay described earlier. The results were compared to those determined using the parent RTV-1033-3. We determined the pattern of phenotypic susceptibility to the NNRTIs, delavirdine, nevirapine and efavirenz, in the reverted vector, RTV-1033-3/106V/227F/286T.

[4] = system: RTV-309-3/184M; assay: Phenotypic susceptibility assay, RTV-309-3/184M; format: cell-based, HIV; conditions: RTV-309-3 with M184V reverted
From the text: as §1, §2, §3, §4
as §6, with “RTV-309-3” for “RTV-1033-3”, “the M184V (RTV-309-3/184M)” for “V106A, F227L and T286A (RTV-1033-3/106V/227F/286T)”, “RTV-309-3.” for “RTV-1033-3.”, “RTV-309-3/184M.” for “RTV-1033-3/106V/227F/286T.”

[5] = system: RTV-1033-3/283L/284R/286T; assay: Phenotypic susceptibility assay, RTV-1033-3/283L/284R/286T; format: cell-based, HIV; conditions: RTV-1033-3 with L283I, R284K and T286A reverted
From the text: as §1, §2, §3, §4
as §6, with “L283I, R284K” for “V106A, F227L”, “(RTV-1033-3/283L/284R/286T)” for “(RTV-1033-3/106V/227F/286T)”, “RTV-1033-3/283L/284R/286T.” for “RTV-1033-3/106V/227F/286T.”

[6] = system: RTV-I135T; assay: Phenotypic susceptibility assay, RTV-I135T; format: cell-based, HIV-1; conditions: site-directed I135T alone
From the text: as §1, §2, §3, §4
as §5, with “a single mutation, I135T, (RTV-I135T)” for “three mutations, K103N, I135T and V245T (RTV-K103N/I135T/V245T)”, “position 135.” for “positions 103, 135 and 245.”, “RTV-I135T.” for “RTV-K103N.”

Row | Compound | drug-dependent stimulation of viral replication [1] [%] | reductions in susceptibility compared to wild type control RTV [1] | drug-dependent stimulation of viral replication [2] [%] | reductions in susceptibility compared to wild type control RTV [2] [fold] | drug-dependent stimulation of viral replication [3] [%] | reductions in susceptibility compared to wild type control RTV [3] [fold] | drug-dependent stimulation of viral replication [4] [%] | reduction in susceptibility compared to wild type control RTV [4] [fold] | drug-dependent stimulation of viral replication [5] [%] | reductions in susceptibility compared to wild type control RTV [5] [fold] | drug-dependent stimulation of viral replication [6] | reductions in susceptibility compared to wild type control RTV [6]
1 | CC(C)Nc1cccnc1N1CCN(C(=O)c2cc3cc(NS(C)(=O)=O)ccc3[nH]2)CC1 [delavirdine] | ~50 | > 250 fold | ~60 | 13 | ~60 | 3 | ~50 | 4 | ~40 | 7 | no drug-dependent stimulation | no reductions
2 | O=C1Nc2ccc(Cl)cc2[C@@](C#CC2CC2)(C(F)(F)F)O1 [efavirenz] | ~25 | 174 fold | ~40 | 4 | ~50 | 5 | ~60 | 5 | ~30 | 85 | no drug-dependent stimulation | no reductions
3 | Cc1ccnc2c1NC(=O)c1cccnc1N2C1CC1 [nevirapine] | ~40 | 594 fold and 544 fold | ~60 | 15 | ~70 | 6 | ~80 | 9 | ~80 | > 600 | no drug-dependent stimulation | no reductions
